Laboratory results from US20250195556A1, “COMPOSITIONS, KITS, AND METHODS TO INDUCE ACQUIRED CYTORESISTANCE USING STRESS PROTEIN INDUCERS” (FRED HUTCHINSON CANCER RESEARCH CENTER, priority 2014, published 2025).
Values joined by “and” are separate entries in the source; they are usually repeats but may differ in a detail not shown here. Identical values can stand only once.

Experiments:
Type in all cases: in vivo, mice
[1] = tested on: HO-1; test: Renal cortical HO-1 mRNA (RT-PCR) and protein (ELISA) after IV myoglobin, SnPP or both (Example 1)
Source text: The Glycerol Model of AKI. This is a widely used model of rhabdomyolysis-induced AKI that has been employed worldwide for 50 years. The model was used to test whether prophylactic interventions confer protection against AKI. Basically, the protocol is as follows: Male CD-1 mice (35-45 grams), obtained from Charles River Laboratories, Wilmington, M A were studied. Mice were maintained under standard vivarium conditions and generally housed for 1-3 weeks prior to study. The mice were placed in a cylindrical restraining cage, and then were given a tail vein injection of the test substances (see below) or test substance vehicle. The mice were then returned to their cages. Eighteen hours (hrs) later, the mice were briefly anesthetized by isoflurane inhalation, and given an intramuscular injection of hypertonic (50%) glycerol in a dose of 9 ml/Kg body weight. The dose is divided in two, with half injected into the muscle of each of the hind limbs. The mice were then returned to their cages. Eighteen hrs later, the mice were deeply anesthetized with pentobarbital (50-100 mg/Kg), the abdominal cavity was opened through a midline abdominal incision, a blood sample was obtained from the abdominal vena cava and the kidneys were resected. A kidney cross section was obtained and fixed in formalin for subsequent histologic analysis. The terminal blood samples were analyzed for BUN and creatinine, using commercially available assay kits. The remaining kidney tissue was subjected to cortical dissection, and the cortical tissues were then extracted for protein and RNA. The protein samples were saved for analysis of HO-1 levels, and the RNA samples were subjected to RT-PCR to quantify HO-1 mRNA as well as levels of other stress gene mRNAs (e.g. NGAL, haptoglobin, hemopexin, hepicidin).
Myoglobin+SnPP: To 5 mg of dry myoglobin was added 0.9 ml of PBS+0.1 ml of a stock SnPP solution (50 umole/ml). The resulting final concentrations were 5 mg/ml myoglobin+5 umoles/ml of SnPP. The tail vein was injected with 200 μl of this solution, which equals 1 mg myoglobin+1 umole SnPP. […]
Four hr post myoglobin vs myoglobin+SnPP vs SnPP alone experiments. To confirm that the myoglobin+SnPP has a synergistic effect in inducing HO-1 mRNA and HO-1 protein levels, each of the above combinations have been administered alone via tail vein injection. Four hrs later, the mice were sacrificed as noted above and the kidneys were harvested for assessment of HO-1 mRNA and protein levels. For additional information regarding methods, see Zager et al., Am J Physiol Renal Physiol. 2014 Jul. 30. Pii.

[2] = tested on: HO-1; test: Cardiac HO-1 mRNA and protein after IV N-Mgb, SnPP or both; details: for Cardiac mRNA: HO-1: control 0.07
Experimental: (§1) Thirty-two mice were divided into 4 equal groups: (1) control mice; (2) mice treated with 1 mg of N-Mgb injection (as a bolus through the tail vein); (3) mice treated with […] of SnPP (via tail vein); and (4) mice treated with combined N-Mgb 1 SnPP. After either 4 hours (n=16) or 18 hours (n=16), the mice were deeply anesthetized with pentobarbital (50 mg/kg), the abdomen was opened through a midline abdominal incision, and the kidneys were removed. To determine potential effects on extrarenal organs, a liver lobe and the heart were also removed. The tissues were iced and then extracted for protein and RNA (RNeasy Plus Mini; Qiagen, Valencia, California) and subjected to enzyme linked immunosorbent assay (ELISA) and reverse transcriptase polymerase chain reaction (RT-PCR) for HO-1, haptoglobin, and IL-10 protein and messenger RNAs (mRNAs). Zager et al. J Am Soc Nephrol 2014; 25:998-1012; Zager et al. Am J Physiol 2012; 303: F139-48. As an assessment of renal function, control mice and the 18 hour after N-Mgb+SnPP-treated mice had blood urea nitrogen (BUN) and plasma creatinine levels measured. Additionally, transverse 10% formalin fixed kidney sections ([…]) were cut and stained with hematoxylin and eosin (H&E) and periodic acid Schiff (PAS) to further assess potential injury.

[3] = tested on: HO-1; test: Liver HO-1 mRNA and protein after IV N-Mgb, SnPP or both; details: for Liver mRNA: HO-1: control 1.1; for Liver protein: HO-1 protein: control 10.2
Experimental: as §1

[4] = tested on: IL-10; test: Cardiac IL-10 mRNA and protein after IV N-Mgb, SnPP or both; details: for Cardiac mRNA: IL-10: control 0.36
Experimental: as §1

[5] = tested on: IL-10; test: Renal cortical IL-10 mRNA and protein after IV N-Mgb, SnPP or both; details: for Kidney protein: IL-10: control 304
Source text: Cytoresistance-inducing reagents. […] (#Mb0360; Sigma) was used as the primary cytoresistance-inducing agent. However, because myoglobin (Mgb) has an inherent nephrotoxic potential (particularly under conditions of volume depletion and aciduria), two approaches were used to mitigate Mgb's potential adverse effects. First, the Mgb was converted into a nitrited form by the addition of equimolar amount of sodium (Na) nitrite. In this regard, nitrite is an ambidentate molecule that directly binds 1:1 to myoglobin Fe either via its oxygen or nitrogen component. Cotton et al. Advanced inorganic chemistry. Hobocken, NJ: Wiley-Interscience, 1999:1355; Silaghi-Dumitrescu et al. Nitric Oxide 2014; 42 C: 32-9. […] Rassaf et al. Circ Res 2014; 114:1601-10; Totzeck et al. Circulation 2012; 126:325-34 [J Clin Invest 1992; 89:989-95]; Totzeck et al. PLOS One 2014; 22: e105951; Hendgen-Cotta et al. Proc Natl Acad Sci USA 2008; 105:10256-61.
as §1

[6] = Plasma LDH 4 hr after IV test agents (marker of liver, kidney, lung and heart injury); details: 4 hr IV

Q: Which results are given for `C=Cc1c2[n-]c(c1C)/C=c1\[n-]/c(c(C)c1C=C)=C\c1[n-]c(c(CCC(=O)O)c1C)/C=c1\[n-]c(c(C)c1CCC(=O)O)=C2.[Sn+4]` [SnPP, tin protoporphyrin, reference compound]?
A: HO-1 protein expression (by ELISA), Average ([1]; cortex, 4 hr IV, 1 mg myoglobin, 1 μmole SnPP, PBS 13.5, carrier 21.5): 34.4 ng HO-1/mg protein; HO-1 protein expression (by ELISA) ([1]; cortex, 4 hr IV, 1 mg myoglobin, 1 μmole SnPP, individual mice): 31.5 ng HO-1/mg protein and 20.5 ng HO-1/mg protein and 53.6 ng HO-1/mg protein and 32.2 ng HO-1/mg protein; HO-1/GAPDH mRNA, Average ([1]; kidney, 4 hr post IV injection, control average 1.93): 6.94; HO-1/GAPDH mRNA ([1]; kidney, 4 hr post IV injection, individual mice): 9.72 and 8.25 and 6.95 and 2.85; Cardiac mRNA: HO-1 ([2]; 4 h after Rx): 0.14 ± 0.01; Cardiac mRNA: HO-1 ([2]; 18 h after Rx): 0.09 ± 0.03; Cardiac protein: HO-1 ([2]; 18 h after Rx, control 1.5): 2.67 ± 0.4; Liver mRNA: HO-1 ([3]; 4 h after Rx): 3.15 ± 0.25; Liver protein: HO-1 protein ([3]; 4 h after Rx): 7.4 ± 0.7; Liver mRNA: HO-1 ([3]; 18 h after Rx): 2.56 ± 0.21; Liver protein: HO-1 protein ([3]; 18 h after Rx): 18 ± 2.5; Cardiac mRNA: IL-10 ([4]; 4 h after Rx): 0.58 ± 0.16; Cardiac protein: IL-10 ([4]; 4 h after Rx, control 8.1): 15.8 ± 10^; Cardiac mRNA: IL-10 ([4]; 18 h after Rx): 0.53 ± 0.10; Cardiac protein: IL-10 ([4]; 18 h after Rx, control 8): 23.4 ± 14^; Kidney mRNA: IL-10 ([5]; 4 h after Rx, control 0.56): 0.39 ± 0.15; Kidney protein: IL-10 ([5]; 4 h after Rx): 550 ± 86; Kidney mRNA cortex: IL-10 ([5]; 18 h after Rx, control 0.56): 0.18 ± 0.09; Kidney protein: IL-10 ([5]; 18 h after Rx): 454 ± 51; Plasma LDH, Average ([6]; carrier 4.43): 4.51 Absorbance U LDH/ml; Plasma LDH ([6]; individual subjects): 5.00 Absorbance U LDH/ml and 3.23 Absorbance U LDH/ml and 4.54 Absorbance U LDH/ml and 5.29 Absorbance U LDH/ml
